Holding throughout (assay): antifungal activity, standard agar dilution streak method
Assay type in all cases: cell-based
A general note: In agar dilution the substance is mixed into plates at graded concentrations.

Assay [1] relates to Candida albicans KYF-602. The following applies: KYF602, read-out: Minimum Inhibitory Concentration. The protocol: (§1) The antifungal activity of the compound of the present invention was assayed by the standard agar dilution streak method against fungi.
Assay [2] relates to Candida stellatidea IFO-1398. To be noted: IFO1398, read-out: Minimum Inhibitory Concentration. The protocol: as §1
In assay [3] the test system is Trichophyton mentagrophytes MTU-19003. The following applies: MTU19003, read-out: Minimum Inhibitory Concentration. How it is done: as §1
The test system of assay [4] is Candida albicans 3147. The following applies: read-out: Minimum Inhibitory Concentration. The protocol: as §1
Assay [5] concerns Microsporum canis 20010. To be noted: read-out: Minimum Inhibitory Concentration. The protocol: as §1
Assay [6] concerns Trichophyton mentagrophytes MTU-19005. The following applies: MTU19005, read-out: Minimum Inhibitory Concentration. The protocol:
as §1

Assay [7] deals with Aspergillus fumigatus MTU-06002. To be noted: MTU06002, read-out: Minimum Inhibitory Concentration. The protocol: as §1
Assay [8] deals with Candida albicans IFO-1388. To be noted: IFO1388, read-out: Minimum Inhibitory Concentration. How it is done: as §1
Assay [9] deals with Candida albicans IFO-1594. To be noted: IFO1594, read-out: Minimum Inhibitory Concentration. How it is done: as §1
Assay [10] relates to Candida albicans MTU-12124. To be noted: MTU12124, read-out: Minimum Inhibitory Concentration. The protocol: as §1

The structures appear in SMILES notation. In brackets after ≈: the same amount, converted by molar mass.

With `Clc1cc(Cl)n2c(-c3ccc(Cl)c(Cl)c3)ncc2n1` [Ex. 7], the MIC in assay [1] was 3.13 µg/mL (≈ 9.4 µM); in [2], 0.39 µg/mL (≈ 1.17 µM); in [3], 0.78 µg/mL (≈ 2.34 µM); in [4] it was 1.56 µg/mL (≈ 4.68 µM); in assay [5] it was 0.39 µg/mL (≈ 1.17 µM); in assay [6] it was 139 µg/mL (≈ 417 µM). Moreover, the MIC was above 100 µg/mL in assay [7], 1.56 µg/mL (≈ 4.68 µM) in [8], 1.56 µg/mL (≈ 4.68 µM) in [9] and 1.56 µg/mL (≈ 4.68 µM) in assay [10].

For the compound `Clc1cc(Cl)n2c(C3CCCCC3)ncc2n1` [Ex. 23], the MIC was 3.13 µg/mL (≈ 11.6 µM) in [1]; 3.13 µg/mL (≈ 11.6 µM) in [2]; 3.13 µg/mL (≈ 11.6 µM) in [3]; 1.56 µg/mL (≈ 5.77 µM) in assay [4]; 1.56 µg/mL (≈ 5.77 µM) in assay [5]; 1.56 µg/mL (≈ 5.77 µM) in [6]. Further, the MIC in assay [7] came out at 50 µg/mL (≈ 185 µM); in [8] it was 0.2 µg/mL (≈ 0.74 µM); in assay [9], 0.39 µg/mL (≈ 1.44 µM); in assay [10], 6.25 µg/mL (≈ 23.1 µM).

Take `Clc1ccc(Cc2ncc3nc(Cl)cc(Cl)n23)cc1` [Ex. 16]: the MIC in assay [1] came out at 3.13 µg/mL (≈ 10 µM); in [2], 0.78 µg/mL (≈ 2.5 µM); in [3], 1.56 µg/mL (≈ 4.99 µM); in [4], 1.56 µg/mL (≈ 4.99 µM); in assay [5], 0.39 µg/mL (≈ 1.25 µM); in assay [6] it was 0.2 µg/mL (≈ 0.64 µM). In addition, the MIC in assay [7] is 3.13 µg/mL (≈ 10 µM); in [8], 1.56 µg/mL (≈ 4.99 µM); in [9], 1.56 µg/mL (≈ 4.99 µM); in assay [10] it was 6.25 µg/mL (≈ 20 µM).

Consider `CC(c1ccccc1)c1ncc2nc(Cl)cc(Cl)n12` (centres unmarked) [Ex. 18], for which the MIC in assay [1] amounted to 12.5 µg/mL (≈ 42.8 µM); in assay [2], 3.13 µg/mL (≈ 10.7 µM); in [3], 1.56 µg/mL (≈ 5.34 µM); in assay [4] it was 3.13 µg/mL (≈ 10.7 µM); in assay [5] it was 1.56 µg/mL (≈ 5.34 µM); in [6], 1.56 µg/mL (≈ 5.34 µM). For the same compound, the MIC came out at 25 µg/mL (≈ 85.6 µM) in [7], 0.78 µg/mL (≈ 2.67 µM) in [8], 3.13 µg/mL (≈ 10.7 µM) in assay [9] and 3.13 µg/mL (≈ 10.7 µM) in [10].

Take `Clc1ccc(-c2ncc3nc(Cl)cc(Cl)n23)cc1` [Ex. 1, 2,4-dichloro-6-(4-chlorophenyl)imidazo[1,5-a]pyrimidine]: the MIC in assay [1] is 6.25 µg/mL (≈ 20.9 µM); in [2], 0.2 µg/mL (≈ 0.67 µM); in [3] it was 1.56 µg/mL (≈ 5.23 µM); in assay [4], 6.25 µg/mL (≈ 20.9 µM); in assay [5] it was 0.78 µg/mL (≈ 2.61 µM); in [6], 0.78 µg/mL (≈ 2.61 µM). Besides, the MIC in assay [7] amounted to 6.25 µg/mL (≈ 20.9 µM); in assay [8], 1.56 µg/mL (≈ 5.23 µM); in assay [9] it was 3.13 µg/mL (≈ 10.5 µM); in assay [10], 3.13 µg/mL (≈ 10.5 µM).

Turning to `Clc1cc(Cl)n2c(-c3ccc(I)cc3)ncc2n1` [Ex. 21], the MIC in [1] is above 6.25 µg/mL; in [2] it was 1.56 µg/mL (≈ 4 µM); in assay [4] it was 1.56 µg/mL (≈ 4 µM); in assay [8] it was 3.13 µg/mL (≈ 8.03 µM); in assay [9], 6.25 µg/mL (≈ 16 µM); in [10] it was 1.56 µg/mL (≈ 4 µM).

Consider `Clc1ccc(Cc2ncc3nc(Cl)cc(Cl)n23)c(Cl)c1` [Ex. 20], for which the MIC in assay [1] was above 6.25 µg/mL; in [2] it was 0.2 µg/mL (≈ 0.576 µM); in assay [3] it was 1.56 µg/mL (≈ 4.5 µM); in assay [4] it was 0.78 µg/mL (≈ 2.25 µM); in [5], 0.78 µg/mL (≈ 2.25 µM); in [6], 0.78 µg/mL (≈ 2.25 µM). Moreover, the MIC in assay [7] is above 6.25 µg/mL; in [8], 0.78 µg/mL (≈ 2.25 µM); in assay [9], 0.78 µg/mL (≈ 2.25 µM); in assay [10], 0.78 µg/mL (≈ 2.25 µM).

Take `Clc1ccc(-c2ncc3nc(Cl)cc(Cl)n23)c(Cl)c1` [Ex. 9]: the MIC in assay [1] turned out to be 6.25 µg/mL (≈ 18.8 µM); in assay [2], 0.78 µg/mL (≈ 2.34 µM); in assay [3], 1.56 µg/mL (≈ 4.68 µM); in assay [4], 1.56 µg/mL (≈ 4.68 µM); in [5], 1.56 µg/mL (≈ 4.68 µM); in assay [6] it was 0.78 µg/mL (≈ 2.34 µM). Also, the MIC was found to be 12.5 µg/mL (≈ 37.5 µM) in assay [7], 0.78 µg/mL (≈ 2.34 µM) in assay [8], 3.13 µg/mL (≈ 9.4 µM) in [9] and 1.56 µg/mL (≈ 4.68 µM) in [10].

For `Clc1cc(Cl)n2c(-c3ccc(Br)cc3)ncc2n1` [Ex. 5], the MIC is 6.25 µg/mL (≈ 18.2 µM) in assay [1]; 0.2 µg/mL (≈ 0.583 µM) in [2]; 1.56 µg/mL (≈ 4.55 µM) in assay [3]; 1.56 µg/mL (≈ 4.55 µM) in assay [4]; 0.78 µg/mL (≈ 2.27 µM) in assay [5]; 0.78 µg/mL (≈ 2.27 µM) in assay [6]. For the same compound, the MIC in [7] amounted to 6.25 µg/mL (≈ 18.2 µM); in assay [8], 1.56 µg/mL (≈ 4.55 µM); in [9], 3.13 µg/mL (≈ 9.13 µM); in assay [10], 3.13 µg/mL (≈ 9.13 µM).
